A value given as a limit tells only on which side of the number the result lay.

One series has as its system Phytophthora infestans. Type of series: in vivo. Conditions: tomato, protective; application rate of 50 g/ha; 3 days after the inoculation.
The nature of a further series: physchem. Conditions: hplc.
The conditions of series [1]: hplc.
A further series has as its system Plasmopara viticola. As to the kind of experiment: Plasmopara Test (Grapevine)/protective. Conditions: protective, application rate of 50 g/ha, 6 days after the inoculation. Format: in vivo.
The mark [2] stands for this setting: E/Z mixture, second of two values (Z position).

For the compound `CCOc1ccc(CC(C)NC(=O)C(=NOC)c2ccc3c(c2)CCCC3)cc1OC` (stereo not shown) [Example 1, N-[2-(4-ethoxy-3-methoxyphenyl)-1-methylethyl]-2-methoxyimino-2-(5,6,7,8-tetrahydronaphthalin-2-yl)-acetic acid amide], the chromatographic logP in the series “logP determined by HPLC” (E/Z mixture, (E position)) stood at 3.72; in the series “logP determined by HPLC” (setting [2]), 4.04. The compound also yielded an efficacy in the series with Phytophthora infestans of at least 86%.

In the series “physchem”, `CCOc1ccc(CC(C)NC(=O)C(=NOC)c2ccc(Br)cc2)cc1OC` (stereo not shown) [Example 2] yielded a chromatographic logP of 3.34. Also, the logP in series [1] stood at 3.64.

For `CCOc1ccc(CC(C)NC(=O)C(=NOC)c2ccc3c(c2)CCC3)cc1OC` (stereo not shown) [Example 3], the chromatographic logP in “logP determined by HPLC” (E/Z mixture, (E position)) was 3.13; in the series “logP determined by HPLC” (setting [2]), 3.44.

In the series “physchem”, `CCOc1ccc(CC(C)NC(=O)C(=NOC)c2ccc(Cl)cc2)cc1OC` (stereo not shown) [Example 4] registered a chromatographic logP of 3.26. This compound also registered a logP in series [1] of 3.56.

`CCOc1ccc(CC(C)NC(=O)/C(=N\OC)c2ccc(Br)cc2)cc1OC` (stereo not shown) [Example 5]: the chromatographic logP in the series “physchem” is 3.64.

With `CCOc1ccc(CC(C)NC(=O)/C(=N/OC)c2ccc(Br)cc2)cc1OC` (stereo not shown) [Example 6], in “physchem”, the chromatographic logP is 3.34. Besides, the efficacy was at least 96% in the series with Plasmopara viticola and at least 86% in the series on Phytophthora infestans.

`CCOc1ccc(CC(C)NC(=O)/C(=N/OC)c2ccc(Cl)cc2)cc1OC` (stereo not shown) [Example 7] yielded a chromatographic logP in the series “physchem” of 3.26. Moreover, the efficacy in the series on Plasmopara viticola is at least 96%; in the series on Phytophthora infestans it was at least 86%.

As for `CCON=C(C(=O)NC(C)Cc1ccc(OCC)c(OC)c1)c1ccc2c(c1)CCCC2` (stereo not shown) [Example 8], the chromatographic logP was 4.07 in “logP determined by HPLC” (E/Z mixture, (E position)) and 4.41 in “logP determined by HPLC” (setting [2]).

`CCON=C(C(=O)NC(C)Cc1ccc(OCC)c(OC)c1)c1ccc(Br)cc1` (stereo not shown) [Example 9]: the chromatographic logP in “logP determined by HPLC” (E/Z mixture, (E position)) turned out to be 3.69; in “logP determined by HPLC” (setting [2]) it was 4.01.

As to `CCOc1ccc(CC(C)NC(=O)C(=NOC)c2ccc(C)cc2)cc1OC` (stereo not shown) [Example 10], the chromatographic logP in the series “physchem” was 3.04. The same compound gave a logP in series [1] of 3.34.

Take `CCON=C(C(=O)NC(C)Cc1ccc(OCC)c(OC)c1)c1ccc(Cl)cc1` (stereo not shown) [Example 11]: the chromatographic logP worked out at 3.59 in the series “logP determined by HPLC” (E/Z mixture, (E position)) and 3.91 in “logP determined by HPLC” (setting [2]). In addition, in the series with Phytophthora infestans, the efficacy was at least 86%.

`CCON=C(C(=O)NC(C)Cc1ccc(OCC)c(OC)c1)c1ccc2c(c1)CCCC2` (stereo not shown) [Example 12] yielded a chromatographic logP in the series “logP determined by HPLC” (single value (single isomer)) of 4.41.

In the case of `CCO/N=C(/C(=O)NC(C)Cc1ccc(OCC)c(OC)c1)c1ccc2c(c1)CCCC2` (stereo not shown) [Example 13], the chromatographic logP in the series “logP determined by HPLC” (single value (single isomer)) came out at 4.07. The efficacy in the series with Phytophthora infestans is reported as at least 86%.

For the compound `CCON=C(C(=O)NC(C)Cc1ccc(OCC)c(OC)c1)c1ccc(C)cc1` (stereo not shown) [Example 14], the chromatographic logP in the series “logP determined by HPLC” (E/Z mixture, (E position)) amounted to 3.38; in the series “logP determined by HPLC” (setting [2]) it was 3.71. Besides, the efficacy was at least 96% in the series with Plasmopara viticola and at least 86% in the series with Phytophthora infestans.

With `CCON=C(C(=O)NC(C)Cc1ccc(OCC)c(OC)c1)c1ccc(CC)cc1` (stereo not shown) [Example 15], the chromatographic logP in the series “logP determined by HPLC” (E/Z mixture, (E position)) amounted to 3.73; in the series “logP determined by HPLC” (setting [2]), 4.05.

For the compound `CCON=C(C(=O)NC(C)Cc1ccc(OCC)c(OC)c1)c1ccc2c(c1)CCC2` (stereo not shown) [Example 16], the chromatographic logP amounted to 3.79 in “logP determined by HPLC” (E/Z mixture, (E position)) and 4.1 in the series “logP determined by HPLC” (setting [2]).

For the compound `CCO/N=C(\C(=O)NC(C)Cc1ccc(OCC)c(OC)c1)c1ccc2c(c1)CCC2` (stereo not shown) [Example 17], in “logP determined by HPLC” (single value (single isomer)), the chromatographic logP came out at 4.1.

For the compound `CCO/N=C(/C(=O)NC(C)Cc1ccc(OCC)c(OC)c1)c1ccc2c(c1)CCC2` (stereo not shown) [Example 18], in the series “logP determined by HPLC” (single value (single isomer)), the chromatographic logP turned out to be 3.79.

In “logP determined by HPLC” (single value (single isomer)), `CCO/N=C(\C(=O)NC(C)Cc1ccc(OCC)c(OC)c1)c1ccc(CC)cc1` (stereo not shown) [Example 19] displayed a chromatographic logP of 4.05.

In the case of `CCO/N=C(/C(=O)NC(C)Cc1ccc(OCC)c(OC)c1)c1ccc(Br)cc1` (stereo not shown) [Example 20], the chromatographic logP in “logP determined by HPLC” (single value (single isomer)) came out at 3.69.

The values are drawn from patent US6313173A, “Glyoxylic acid amides” (Bayer Aktiengesellschaft, priority 1996, dated 2001).
